Common to all, as to assay type: physicochemical
A short description of series [1]: T1 relaxivity (r1) by inversion recovery on Bruker mq60 Minispec, 1.4 T, 37° C., TRIS buffer pH 7.4. The method, then:
(§1) Liquid chromatography-electrospray mass spectrometry (LC-MS) was performed using an Agilent 1100 Series apparatus with an LC/MSD trap and Daly conversion dynode detector with UV detection at 220, 254 and 280 nm. The methods used on this system are as follows: (a) Luna C18 column (100×2 mm); eluent A: H2O/0.1% formic acid, B: MeCN/0.1% formic acid; gradient: 5% B to 95% B over 9 minutes; flow rate 0.8 mL/min (used for characterization of organic compounds), and (b) Kromasil C18 column (250×4.6 mm); eluent C: 95% MeCN/5% 10 mM ammonium acetate, D: 10 mM ammonium acetate; gradient 5% C to 8% C over 14 minutes; flow rate 0.8 ml/min (used for characterization of manganese complexes). Reversed-phase semipreparative purification was performed on a Rainin Dynamax HPLC system with UV detection at 254 nm using a Polaris C18 column. The method used for purification is as follows: The mobile phase A was 50 mM ammonium acetate buffer, pH 6.5 and mobile phase B was a mixture of 5% 50 mM ammonium acetate buffer, pH 6.5/95% MeCN. Starting from 5% B, the fraction of B increased to 8% over 23 minutes. The column was washed with 100% B for 2 minutes and then ramped to 5% B. The system was re-equilibrated at 5% B for 3 minutes. Relaxivity measurements were performed on a Bruker mq60 Minispec at 1.4 T and 37° C. Manganese concentrations were determined using an Agilent 7500a ICP-MS system. All samples were diluted with 0.1% Triton X-100 in 5% nitric acid containing 20 ppb of Lu (as internal standard). The ratio of Mn (54.94)/Lu(174.97) was used to quantify the manganese concentration. A linear calibration curve ranging from 0.1 ppb to 200 ppb was generated daily for the quantification. UV-Vis spectra were recorded on a SpectraMax M2 spectrophotometer using quartz cuvette with a 1 cm path length. Cyclic voltammetry of Mn^IIHBET, Mn^IIEDTA and Mn^IIIHBET was recorded using a Nuvant EZstat pro potentiostat in TRIS buffer (pH=7.4), containing 0.5M KNO3 as supporting electrolyte, at 100 mVs-1 scan rate. Glassy carbon was used as the working electrode, Ag/AgCl served as the reference electrode and Pt wire was used as the auxiliary electrode. The K4FeCN6/K3FeCN6 couple was used as the internal standard.
T1 was measured with an inversion recovery pulse sequence taking 10 inversion times. Relaxivity was determined from the slope of a plot of 1/T1 vs. concentration of in TRIS buffer, pH=7.4 at 37° C. The concentration of manganese in each stock solution was determined using ICP-MS.
All chemicals and solvents were purchased commercially and used without further purification. NMR spectra were recorded on either a 500 MHz or 400 MHz Varian spectrometers. Chemical shifts are reported in δ (ppm). For ^1H and ^13C NMR spectra, the residual solvent peaks were used as internal reference, except for the ^13C NMR of the ligand where tertiary-butanol was used as the internal reference. Liquid chromatography-electrospray mass spectrometry (LC-MS) was performed using an Agilent 1100 Series apparatus with an LC/MSD trap and Daly conversion dynode detector with UV detection at 220, 254 and 280 nm. The methods used on this system are as follows: (a) Luna C18 column (100×2 mm); eluent A: H2O/0.1% formic acid, B: MeCN/0.1% formic acid; gradient: 5% B to 95% B over 9 minutes; flow rate 0.8 mL/min (used for characterization of organic compounds), and (b) Kromasil C18 column (250×4.6 mm); eluent C: 95% MeCN/5% 10 mM ammonium acetate, D: 10 mM ammonium acetate; gradient 5% C to 8% C over 14 minutes; flow rate 0.8 ml/min (used for characterization of manganese complexes). Reversed-phase semipreparative purification was performed on the Rainin Dynamax HPLC system with UV detection at 254 nm using a Polaris C18 column. The method used for purification is as follows: The mobile phase A was 50 mM ammonium acetate buffer, pH 6.5 and mobile phase B was a mixture of 5% 50 mM ammonium acetate buffer, pH 6.5/95% MeCN. Starting from 5% B, the fraction of B increased to 8% over 23 minutes. […]

Series [2] can be described thus: UV spectrum as a function of pH (phenol deprotonation pKa). The conditions noted are these: fit of UV absorbance vs pH. The method, then: To probe the speciation of the manganese complexes in solution, pH titrations of 1:1 Mn^2+:ligand were performed using a 1 N NaOH under N2 atmosphere (FIG. 21).
To determine the species that exists in these two pH ranges the UV spectrum as a function of pH was monitored (see FIGS. 22-24).

Series [3] can be described thus: T1 measurement by MR imaging at 4.7 T (Bruker Biospec). The conditions noted are these: room temperature, pH 7.4 TRIS buffer. How it is done:
Right: relaxivities measured at room temperature at 4.7 T.
MR imaging was performed using a Bruker Biospec 4.7T system. Three samples (˜500 μL) were placed in a homemade sample holder and imaged using a volume coil. Acquisition matrix=64×256 for 0.234×0.312 mm^2 in-plane resolution; slice thickness=5 mm. T1-weighted images were obtained with a fast low angle shot (FLASH) gradient echo sequence: TR/TE/FA=20/5.44/40° with 8 averages. T1 was determined using a 2D rapid acquisition refocused echo (RARE) inversion recovery sequence: TR=3200 ms, TE=9.7 ms. Inversion times (TI): 5, 45, 85, 165, 325, 645, 1285, 1925 and 3205 ms. T1 was obtained from a nonlinear least square fit of the signal intensity (SI(t)) vs. TI curve where T1, SI(0) and a are adjustable parameters, equation S2.
SI(t)=SI(0)[1−α,e^TI/T1] (eq. S2)

A short description of series [4]: Stability of manganese complexes in buffers. How it is done:
The stability of the manganese complexes were measured in different buffers using concentrations similar to those found in the blood plasma (1 mM phosphate buffer, 25 mM sodium bicarbonate buffer and 0.1 mM citrate buffer). A solution, 0.5 mM, of the manganese complex was incubated in the respective buffers at 37° C. (pH=7.4) and the species were then quantified on the LC-MS using the method as described earlier. The manganese complexes (0.5 mM) were also treated with EDTA (0.5 mM) in TRIS buffer (pH=7.4) and incubated at 37° C. for 1 hour. The species were then quantified on the LC-MS using the method as described earlier.

A short description of series [5]: Cyclic voltammetry of the Mn(III)/Mn(II) redox couple. How it is done: Potentials are vs. K4Fe(CN)6/K3Fe(CN)6; and in (b), a Cottrell plot of the Mn^2+/Mn^3+ couple—ia, (decreasing line) and ic (increasing line) vs. √v, where v=scan rate.
as §1

On to `O=C([O-])CN(CCN(CC(=O)[O-])Cc1ccccc1[O-])CC(=O)[O-].[Mn+2].[Na+].[Na+]` [Compound 4, Na2[Mn^IIHBET]], for which, in series [1] (1.4 T, Tris buffered saline pH 7.4, 37° C.), the T1 relaxivities worked out at 2.76 mM⁻¹ s⁻¹. Also, the “r1 (relaxivity of manganese complexes)” value in series [1] (pH 7.4, 37° C., 1.4 Tesla) came out at 2.76 mM⁻¹ s⁻¹. For the same molecule, in series [2], the “pKa for ionization of the phenol” value is 7.64. Further, the “fold higher relaxivity of reduced Mn^II-HBET form vs Mn^III-HBET” value in series [3] was 3.3 fold. Besides, in series [4], the “stability in phosphate and carbonate buffers” value was “stable”. Also, the reversible oxidation peak in series [5] (TRIS buffer pH 7.4, vs. K4Fe(CN)6/K3Fe(CN)6) was found to be 0.356 V. Further, in series [5] (pH 7.4, vs. NHE), the “Half-cell potential vs. normal hydrogen electrode (NHE)” value was found to be 379 mV.

Values taken from patent US20150336996A1, “MANGANESE-BASED MAGNETIC RESONANCE CONTRAST AGENTS” (THE GENERAL HOSPITAL CORPORATION, priority 2013, published 2015).
